# The supplement of paper PMC10307832
# Key:
# Assay in all cases: relative viability (nuclei count vs DMSO), 5 days (fraction); higher = more cells survive
# Cediranib + OSI-027 = compound: COc1cc2c(Oc3ccc4[nH]c(C)cc4c3F)ncnc2cc1OCCCN1CCCC1 [Cediranib] + COc1cccc2cc(-c3nc([C@H]4CC[C@H](C(=O)O)CC4)n4ncnc(N)c34)[nH]c12 [OSI-027] (partner 0.5 µM)
# Procedure, shortened: (§1)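 Lung cancer cell lines in 1536-well plates got either a single drug or a fixed anchor-drug dose together with five library-drug doses (not always all listed) in √10 steps, by pin tool, on the day after seeding. Nuclei were counted after 5 days, and relative viability is the treated-to-vehicle ratio of nuclei counts. Values are medians of duplicate plates.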
# Cediranib + Alpelisib = compound: COc1cc2c(Oc3ccc4[nH]c(C)cc4c3F)ncnc2cc1OCCCN1CCCC1 [Cediranib] + Cc1nc(NC(=O)N2CCC[C@H]2C(N)=O)sc1-c1ccnc(C(C)(C)C(F)(F)F)c1 [Alpelisib] (partner 2 µM)
# Procedure, shortened: as §1
# Decitabine + Vorinostat = compound: Nc1ncn([C@H]2C[C@H](O)[C@@H](CO)O2)c(=O)n1 [Decitabine] + O=C(CCCCCCC(=O)Nc1ccccc1)NO [Vorinostat] (partner 1 µM)
# Procedure, shortened: as §1
# Halofuginone + Lapatinib = compound: O=C(C[C@H]1NCCC[C@@H]1O)Cn1cnc2cc(Br)c(Cl)cc2c1=O (racemic) [Halofuginone] + CS(=O)(=O)CCNCc1ccc(-c2ccc3ncnc(Nc4ccc(OCc5cccc(F)c5)c(Cl)c4)c3c2)o1 [Lapatinib] (partner 2 µM)
# Procedure, shortened: as §1
Cell Line,relative viability (Cediranib + OSI-027; first compound 0.04 µM),relative viability (Cediranib + OSI-027; first compound 0.4 µM),relative viability (Cediranib + OSI-027; first compound 1.265 µM),relative viability (Cediranib + OSI-027; first compound 4 µM),relative viability (Cediranib + Alpelisib; first compound 0.04 µM),relative viability (Cediranib + Alpelisib; first compound 0.1265 µM),relative viability (Cediranib + Alpelisib; first compound 0.4 µM),relative viability (Cediranib + Alpelisib; first compound 1.265 µM),relative viability (Cediranib + Alpelisib; first compound 4 µM),relative viability (Decitabine + Vorinostat; first compound 0.04 µM),relative viability (Decitabine + Vorinostat; first compound 0.1265 µM),relative viability (Decitabine + Vorinostat; first compound 0.4 µM),relative viability (Decitabine + Vorinostat; first compound 1.265 µM),relative viability (Decitabine + Vorinostat; first compound 4 µM),relative viability (Halofuginone + Lapatinib; first compound 0.001 µM),relative viability (Halofuginone + Lapatinib; first compound 0.003162 µM),relative viability (Halofuginone + Lapatinib; first compound 0.01 µM),relative viability (Halofuginone + Lapatinib; first compound 0.03162 µM),relative viability (Halofuginone + Lapatinib; first compound 0.1 µM),relative viability (Cediranib + OSI-027; first compound 0.1265 µM)
NCI-H3122,1.09,0.897,0.888,0.975,0.894,1.06,0.731,0.852,0.906,0.92,0.866,0.574,0.53,0.487,1.02,1.05,0.975,0.987,1.04,–
NCI-H1651,0.59,0.721,0.606,0.778,1.04,1.03,1.02,1.01,0.805,0.478,0.456,0.483,0.296,0.407,0.939,0.908,0.763,0.768,0.34,0.652
ABC-1,0.447,0.532,–,0.437,1.06,1.01,1.04,–,1.07,–,0.842,0.964,0.888,0.795,1.22,1.32,1.1,1.06,0.912,0.651
NCI-H2126,0.649,0.668,0.597,0.537,0.776,0.796,0.732,0.662,0.781,0.675,0.678,0.477,0.488,0.386,0.798,0.732,0.773,0.743,0.683,0.577
RERF-LC-KJ,0.572,0.547,0.492,0.523,0.771,–,0.769,0.761,0.739,0.573,0.651,0.286,0.528,0.494,0.951,0.888,0.795,0.833,0.874,0.511
NCI-H1666,0.9,0.891,0.802,0.805,1.04,0.995,0.875,0.924,0.962,0.943,1.05,0.922,0.894,0.836,0.685,0.826,0.626,0.67,0.458,0.809
PC-14,0.993,0.735,0.61,0.724,0.96,1,0.906,0.965,0.986,0.0877,0.265,0.125,0.0989,0.0956,0.325,0.311,0.343,0.419,0.313,0.894
NCI-H1915,0.559,0.566,0.624,0.669,1.05,1,0.997,1.08,1.09,0.263,0.235,0.206,0.158,0.155,0.977,0.983,0.942,0.96,0.984,0.516
NCI-H661,0.734,0.71,0.686,0.669,0.633,1.03,0.631,0.522,0.588,0.806,0.602,0.54,0.467,0.485,0.558,0.546,0.424,0.508,0.366,0.686
SK-MES-1,0.666,0.608,0.542,0.788,0.835,0.916,0.8,0.924,1.02,0.812,0.739,0.529,0.301,0.319,0.486,0.454,0.474,0.409,0.342,0.633
NCI-H1944,0.382,0.422,0.39,0.429,0.876,1.16,0.757,0.785,0.815,0.505,0.486,0.424,0.265,0.299,0.709,0.835,0.852,0.825,0.675,0.513
HCC-78,0.356,0.376,0.311,0.356,0.361,0.379,0.323,0.386,0.287,0.54,0.476,0.477,0.448,0.346,0.931,0.698,0.707,0.903,0.137,0.448
PC-3 [JPC-3],0.777,0.73,0.688,0.627,0.953,0.976,0.998,1.02,0.97,–,0.554,0.507,0.454,0.567,0.466,0.428,0.436,0.511,0.461,0.824
EKVX,0.759,0.681,0.684,0.723,0.961,1.2,0.849,0.879,0.836,0.455,0.506,0.507,0.432,0.335,0.22,0.213,0.183,0.203,0.202,0.809
NCI-H460,0.852,0.573,0.605,0.613,0.66,0.525,0.418,0.526,0.336,0.669,0.64,0.293,0.214,0.0759,0.948,1.27,0.967,0.573,0.11,0.684
NCI-H2170,0.619,0.691,0.611,0.786,0.823,0.901,0.744,0.748,0.882,0.582,0.568,0.414,0.28,0.257,0.279,0.296,0.259,0.291,0.249,0.529
NCI-H727,–,0.523,0.468,0.617,0.452,0.59,0.55,0.624,0.551,1.08,0.973,0.664,0.835,1.1,0.704,0.676,0.949,0.798,0.508,0.486
NCI-H838,0.41,0.379,0.348,0.483,1.06,0.997,0.97,0.962,1.13,0.701,0.595,0.641,0.383,0.34,1.25,1.16,0.891,0.748,0.164,0.364
H3255,0.658,0.638,0.58,0.533,0.785,0.754,0.691,0.622,0.61,–,0.846,0.638,0.487,0.76,0.272,0.255,0.241,0.259,0.235,–
EPLC-272H,0.288,0.287,–,0.232,1.06,–,0.962,0.97,1,0.369,0.281,–,0.221,0.215,0.891,0.851,0.976,0.958,0.907,–
NCI-H647,0.614,0.549,0.49,0.841,1.35,1.3,1.02,0.876,1.21,0.327,0.219,0.269,0.109,0.105,1.14,1.07,1.04,1.02,0.533,0.694
LXF-289,0.667,0.689,0.77,0.79,1.08,0.971,0.995,1.05,1.04,0.462,0.354,0.293,0.243,0.266,0.891,0.893,0.847,0.874,0.895,0.641
NCI-H1755,0.601,0.689,0.694,0.81,1,0.919,0.854,0.918,1.01,0.637,0.608,0.611,0.403,0.429,0.993,0.992,0.992,1.04,0.997,0.565
HCC-15,0.625,0.674,0.692,0.717,0.961,–,0.827,0.933,0.961,0.776,0.678,0.543,0.418,0.35,0.88,0.887,0.829,0.863,0.785,–
EMC-BAC-2,0.377,0.38,0.319,0.367,0.788,0.796,0.707,0.728,0.801,–,0.456,0.538,0.414,0.43,0.952,0.888,0.86,0.89,0.807,0.503
NCI-H1734,0.517,0.583,0.515,0.64,0.626,0.741,0.711,0.619,0.848,0.698,0.685,0.48,0.297,0.306,1.12,1.02,1.05,0.986,0.812,0.705
NCI-H1395,0.628,0.62,0.615,0.608,0.947,–,1.01,1.04,1.04,0.548,0.634,0.605,0.429,0.524,1.02,0.873,1.04,0.891,0.71,0.751
